Results reported in patent US10501481B2, “Heterocyclic compounds and their use in preventing or treating bacterial infections” (priority 2015, dated 2019).

Assays:
[1] = test system: P. aeruginosa UFR35 (OXA-23); experiment: MIC broth microdilution, alone and synergy with ceftazidime; details: for MIC of CAZ in combination with compound at 4 μg/mL: strain UFR35, compound fixed at 4 μg/mL
[2] = test system: P. aeruginosa UFR47 (VIM-1); experiment: MIC broth microdilution, compounds alone; details: Pseudomonas aeruginosa, read-out: MIC compounds of the invention alone
[3] = test system: E. coli UFR74 (SHV-1, DHA-1); experiment: MIC broth microdilution, alone and synergy with ceftazidime; details: for MIC: Escherichia coli, read-out: MIC compounds of the invention alone; for MIC of CAZ in combination with compound at 4 μg/mL: strain UFR74, compound fixed at 4 μg/mL
[4] = test system: E. coli UFR18 (CTX-M-15, OXA-204); experiment: as above; details: for MIC: Escherichia coli, read-out: MIC compounds of the invention alone; for MIC of CAZ in combination with compound at 4 μg/mL: strain UFR18, compound fixed at 4 μg/mL
[5] = test system: P. aeruginosa UFR48 (VIM-2); experiment: MIC broth microdilution, compounds alone; details: Pseudomonas aeruginosa, read-out: MIC compounds of the invention alone
[6] = test system: E. coli 131119 (TEM-1, OXA-48); experiment: MIC broth microdilution, alone and synergy with ceftazidime; details: for MIC: Escherichia coli, read-out: MIC compounds of the invention alone; for MIC of CAZ in combination with compound at 4 μg/mL: strain 131119, compound fixed at 4 μg/mL
[7] = test system: P. aeruginosa UFR92 (derepressed AmpC, OprD−); experiment: as above; details: strain UFR92; compound fixed at 4 μg/mL
[8] = test system: E. cloacae UFR70 (TEM-1, CTX-M-15, CMY-2, OXA-1, Porin loss); experiment: as above; details: for MIC: Enterobacter cloacae, read-out: MIC compounds of the invention alone; for MIC of CAZ in combination with compound at 4 μg/mL: strain UFR70, compound fixed at 4 μg/mL
CTX-M-15 = molecular target: T1, CTX-M-15 (Escherichia coli, UniProt Q9EXV5); experiment: β-lactamase inhibitory activity, nitrocefin hydrolysis; assay type: biochemical
T1 construct: made in house; host or cells: E. coli
Protocol: (§1) Enzyme activity was monitored by spectrophotometric measurement of nitrocefin (NCF-TOKU-E, N005) hydrolysis at 485 nm, at room temperature and in assay buffer A: 100 mM Phosphate pH7, 2% glycerol and 0.1 mg/mL Bovine serum albumin (Sigma, B4287). […] To a transparent polystyrene plate (Corning, 3628) were added in each well 5 μL DMSO or inhibitor dilutions in DMSO and 80 μL enzyme in buffer A. Plates were immediately read at 485 nm in a microplate spectrophotometer (BioTek, PowerWave HT) to enable background subtraction. After 30 min of pre-incubation at room temperature, 15 μL of NCF (200 μM final) were finally added in each well. Final enzyme concentrations were 0.1 nM (TEM-1), 0.075 nM (SHV-1), 0.4 nM (CTX-M-15), 1 nM (KPC-2), 0.2 nM (P99 AmpC), 0.2 nM (CMY-37), 0.4 nM (AmpC P. aeruginosa), 0.2 nM (OXA-1), 1.2 nM (OXA-11), 0.4 nM (OXA-15) and 0.3 nM (OXA-48). After 20 min incubation at room temperature, plates were once again read at 485 nm. Enzyme activity was obtained by subtracting the final signal by the background, and was converted to enzyme inhibition using non inhibited wells. IC50 curves were fitted to a classical Langmuir equilibrium model with Hill slope using XLFIT (IDBS).

[9] = test system: K. pneumoniae BAA-1898 (TEM-1, SHV-11, SHV-12, KPC-2); experiment: microbe, parasite or virus in culture; assay type: cell-based; details: for MIC: Klebsiella pneumoniae, BAA1898, read-out: MIC compounds of the invention alone; for MIC of CAZ in combination with compound at 4 μg/mL: strain BAA-1898, compound fixed at 4 μg/mL
[10] = test system: P. aeruginosa UFR90 (derepressed AmpC, OprD−); experiment: MIC broth microdilution, alone and synergy with ceftazidime; details: strain UFR90; compound fixed at 4 μg/mL
OXA-11 = molecular target: T2, OXA-11 (Pseudomonas aeruginosa, UniProt Q06778); experiment: β-lactamase inhibitory activity, nitrocefin hydrolysis; assay type: biochemical
T2 construct: made in house; host or cells: E. coli
Protocol: as §1

TEM-1 = molecular target: T3, TEM-1 (Escherichia coli, UniProt P62593); experiment: as above; assay type: biochemical; details: class (A); 30 min pre-incubation; nitrocefin 200 μM
T3 construct: made in house; host or cells: E. coli
Protocol: as §1

[11] = test system: E. cloacae UFR85 (TEM-1, CTX-M-15, derepressed AmpC); experiment: MIC broth microdilution, alone and synergy with ceftazidime; details: for MIC of CAZ in combination with compound at 4 μg/mL: strain UFR85, compound fixed at 4 μg/mL
OXA-15 = molecular target: T4, OXA-15 (Pseudomonas aeruginosa, UniProt Q51574); experiment: β-lactamase inhibitory activity, nitrocefin hydrolysis; assay type: biochemical
T4 construct: made in house; host or cells: E. coli
Protocol: as §1

[12] = test system: P. aeruginosa UFR59 (IMP-29); experiment: MIC broth microdilution, compounds alone; details: Pseudomonas aeruginosa, read-out: MIC compounds of the invention alone
[13] = test system: C. murliniae 210102 (VIM-4); experiment: MIC broth microdilution, alone and synergy with ceftazidime; details: for MIC: read-out: MIC compounds of the invention alone; for MIC of CAZ in combination with compound at 4 μg/mL: strain 210102, compound fixed at 4 μg/mL

T3 sequence (P62593 24-286 limits assumed): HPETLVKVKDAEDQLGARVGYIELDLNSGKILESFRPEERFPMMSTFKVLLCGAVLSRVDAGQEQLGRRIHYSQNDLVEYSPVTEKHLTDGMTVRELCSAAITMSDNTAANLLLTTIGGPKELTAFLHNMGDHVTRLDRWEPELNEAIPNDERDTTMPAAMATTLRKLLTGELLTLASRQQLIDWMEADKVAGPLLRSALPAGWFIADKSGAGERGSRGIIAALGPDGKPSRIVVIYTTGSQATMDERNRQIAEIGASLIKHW
T1 sequence (Q9EXV5 entry or part of it): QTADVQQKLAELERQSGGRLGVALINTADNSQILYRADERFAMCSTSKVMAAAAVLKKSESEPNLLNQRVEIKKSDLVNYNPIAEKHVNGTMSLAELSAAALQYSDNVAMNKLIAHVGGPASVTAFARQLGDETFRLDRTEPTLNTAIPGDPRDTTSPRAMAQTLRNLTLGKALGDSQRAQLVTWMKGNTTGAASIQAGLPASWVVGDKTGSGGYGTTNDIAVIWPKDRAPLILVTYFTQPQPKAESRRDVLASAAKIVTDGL
T2 sequence (Q06778 21-266): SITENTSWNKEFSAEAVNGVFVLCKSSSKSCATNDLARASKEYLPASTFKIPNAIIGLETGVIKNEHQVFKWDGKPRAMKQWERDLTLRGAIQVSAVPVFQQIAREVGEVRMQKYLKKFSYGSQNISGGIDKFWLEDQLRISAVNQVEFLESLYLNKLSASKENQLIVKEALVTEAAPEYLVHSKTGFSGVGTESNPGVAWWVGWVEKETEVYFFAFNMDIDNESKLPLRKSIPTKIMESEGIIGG
T4 sequence (Q51574 22-275): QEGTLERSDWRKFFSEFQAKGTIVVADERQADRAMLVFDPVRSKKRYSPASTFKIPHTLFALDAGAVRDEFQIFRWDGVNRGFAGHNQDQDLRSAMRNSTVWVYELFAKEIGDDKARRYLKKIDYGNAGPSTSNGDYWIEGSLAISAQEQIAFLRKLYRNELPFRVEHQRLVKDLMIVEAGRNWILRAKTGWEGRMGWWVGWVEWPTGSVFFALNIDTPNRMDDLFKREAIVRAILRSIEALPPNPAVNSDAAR

SMILES	MIC of CAZ in combination with compound at 4 μg/mL [1] [µg/mL]	MIC [3] [µg/mL]	MIC of CAZ in combination with compound at 4 μg/mL [3] [µg/mL]	MIC [4] [µg/mL]	MIC of CAZ in combination with compound at 4 μg/mL [4] [µg/mL]	MIC [6] [µg/mL]	MIC of CAZ in combination with compound at 4 μg/mL [6] [µg/mL]	MIC of CAZ in combination with compound at 4 μg/mL [7] [µg/mL]	MIC [8] [µg/mL]	MIC of CAZ in combination with compound at 4 μg/mL [8] [µg/mL]	IC50 (CTX-M-15) [nM]	MIC [9] [µg/mL]	MIC of CAZ in combination with compound at 4 μg/mL [9] [µg/mL]	MIC of CAZ in combination with compound at 4 μg/mL [10] [µg/mL]	IC50 (OXA-11) [nM]	IC50 (TEM-1) [nM]	MIC of CAZ in combination with compound at 4 μg/mL [11] [µg/mL]	IC50 (OXA-15) [nM]	MIC [13] [µg/mL]	MIC of CAZ in combination with compound at 4 μg/mL [13] [µg/mL]	other results
NCCn1c2c(sc1=O)C1CN(C2)C(=O)N1OS(=O)(=O)[O-].[Na+] (centres unmarked) [Example 4, Sodium and 2,2,2-trifluoroacetate [5-(2-azaniumethyl)-4,9-dioxo-3-thia-5,8,10-triaza-tricyclo[6.2.1.0^2.6]undec-2(6)-en-10-yl] sulfate]	2	16	≤0.25	0.5	<0.25	2	<0.25	≤0.25	4	<0.25	1.3	16	≤0.125	1	82	4.6	<0.25	300	4	<0.25	MIC ([1]; Pseudomonas aeruginosa, read-out: MIC compounds of the invention alone): 8 µg/mL; MIC [2]: 16 µg/mL; MIC [5]: 8 µg/mL; MIC ([11]; Enterobacter cloacae, read-out: MIC compounds of the invention alone): 2 µg/mL; MIC [12]: 8 µg/mL
COC(=O)Cn1c2c(sc1=O)C1CN(C2)C(=O)N1OS(=O)(=O)[O-].[Na+] (centres unmarked) [Example 2, Sodium [5-(2-methoxy-2-oxo-ethyl)-4,9-dioxo-3-thia-5,8,10-triaza-tricyclo[6.2.1.0^2.6]undec-2(6)-en-10-yl] sulfate]	–	8	1	4	0.5	2	<0.25	–	–	1	1.1	32	–	–	4.1	0.64	16	57	16	–	–
Cn1c2c(sc1=O)C1CN(C2)C(=O)N1OS(=O)(=O)[O-].[Na+] (centres unmarked) [Example 1, Sodium (5-methyl-4,9-dioxo-3-thia-5,8,10-triaza-tricyclo[6.2.1.0^2.6]undec-2(6)-en-10-yl) sulfate]	4	–	<0.25	4	<0.25	1	<0.25	32	4	<0.25	0.69	16	64	64	40	3.3	<0.25	250	32	>128	–
O=C1N2Cc3c(sc(=O)n3CCO)C(C2)N1OS(=O)(=O)[O-].[Na+] (centres unmarked) [Example 5, Sodium [5-(2-hydroxyethyl)-4,9-dioxo-3-thia-5,8,10-triaza-tricyclo[6.2.1.0^2.6]undec-2(6)-en-10-yl) sulfate]	–	4	<0.25	2	<0.25	–	<0.25	–	1	<0.25	0.68	8	4	–	31	1.8	<0.25	190	8	64	–
